Data reported in patent US12371454B2, “Cyclic peptide compound having Kras inhibitory action” (priority 2019, dated 2025).
Positions of bridges follow the written chain, without caps; N, C: chain ends. Non-standard residues stand in square brackets, D forms with d. Residues, ends and D or L forms follow the SMILES beside them. *: point of attachment. hPhe(3-Cl-4-CF3) = N[C@@H](CCc1ccc(C(F)(F)F)c(Cl)c1)C(=O)O; hPhe(3-F,4-CF3) = N[C@@H](CCc1ccc(C(F)(F)F)c(F)c1)C(=O)O; NMePhe(4-CF3) = CN[C@@H](Cc1ccc(C(F)(F)F)cc1)C(=O)O; hPhe(4-CF3) = N[C@@H](CCc1ccc(C(F)(F)F)cc1)C(=O)O; NMeAbu(4,4,4-F3) = CN[C@@H](CC(F)(F)F)C(=O)O; NMePhe(4-Cl) = CN[C@@H](Cc1ccc(Cl)cc1)C(=O)O; NMePhe(4-Me) = CN[C@@H](Cc1ccc(C)cc1)C(=O)O; Phe(2,6-F2) = N[C@@H](Cc1c(F)cccc1F)C(=O)O; NMeGly(cPent) = CN[C@H](C(=O)O)C1CCCC1; Pro(4,4-F2) = O=C(O)[C@@H]1CC(F)(F)CN1; NMe3Pal = CN[C@@H](Cc1cccnc1)C(=O)O; NMeY = CN[C@@H](Cc1ccc(O)cc1)C(=O)O; NMeCha = CN[C@@H](CC1CCCCC1)C(=O)O; NMeChg = CN[C@H](C(=O)O)C1CCCCC1; NMeF = CN[C@@H](Cc1ccccc1)C(=O)O; NMeI = CC[C@H](C)[C@H](NC)C(=O)O; NMeD = CN[C@@H](CC(=O)O)C(=O)O; NMeL = CN[C@@H](CC(C)C)C(=O)O; NMeV = CN[C@H](C(=O)O)C(C)C; d(β3hA) = C[C@@H](N)CC(=O)O; NMeAbu = CC[C@H](NC)C(=O)O; Morpholide = C1CN(*)CCO1; NMeA = CN[C@@H](C)C(=O)O; NMeAib = CNC(C)(C)C(=O)O; Nle = CCCC[C@H](N)C(=O)O; Piperidide = C1CCN(*)CC1; Pyrrolidide = C1CCN(*)C1; Ac5c = NC1(C(=O)O)CCCC1; Aze = O=C(O)[C@@H]1CCN1; NcPrGly = O=C(O)CNC1CC1; NBuGly = CCCCNCC(=O)O; Sar = CNCC(=O)O

target: T1, Kras and SOS1 (biotin-tagged human Kras loaded with GDP, His-tagged human SOS1) (Homo sapiens, UniProt P01116, G12D); assay: Protein-protein interaction inhibition between Kras and SOS1 (KrasGl2D-SOS PPI) using AlphaScreen; format: binding; conditions: AlphaScreen; biotin-tagged human Kras loaded with GDP, His-tagged human SOS1; read-out: KRAS G12D-SOS PPI IC50
T1 construct: made in house; host or cells: E. coli (stated for Kras only)
Procedure, shortened: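 Binding between SOS1 and Kras is detected as bead-proximity luminescence: illuminate Ni-conjugated donors (680 nm), collect 520-620 nm emission from streptavidin-conjugated acceptors; Kras carries biotin and GDP loaded after purification, SOS1 carries a His tag.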

T1 sequence (P01116 1-188 isoform P01116-2 G12D): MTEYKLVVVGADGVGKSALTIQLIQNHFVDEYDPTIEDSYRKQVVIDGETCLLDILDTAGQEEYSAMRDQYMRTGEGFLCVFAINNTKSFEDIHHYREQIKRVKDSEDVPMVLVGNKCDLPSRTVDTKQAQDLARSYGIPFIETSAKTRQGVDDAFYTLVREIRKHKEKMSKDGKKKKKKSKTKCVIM

Question: `CC[C@H](C)[C@@H]1NC(=O)[C@H](CC(C)C)N(C)C(=O)C[C@@H](C(=O)N(C)C)N(C)C(=O)[C@H]([C@@H](C)CC)N(C)C(=O)C2(CCCC2)NC(=O)[C@H](C)N(C)C(=O)[C@H](CCc2ccc(C(F)(F)F)c(Cl)c2)NC(=O)CN(C)C(=O)[C@H](Cc2ccc(C)cc2)N(C)C(=O)[C@@H]2CCN2C(=O)[C@H](C)N(C)C1=O` [Compound 378, (3S,6S,9S,13S,16S,22S,25S,31S,34S)-25-[2-[3-chloro-4-(trifluoromethyl)phenyl]ethyl]-9-isobutyl-N,N,3,4,10,14,17,22,23,29,32-undecamethyl-6,16-bis[(1S)-1-methylpropyl]-2,5,8,11,15,18,21,24,27,30,33-undecaoxo-31-(p-tolylmethyl)spiro[1,4,7,10,14,17,20,23,26,29,32-undecazabicyclo[32.2.0]hexatriacontane-19,1′-cyclopentane]-13-carboxamide] ([NMeL]I[NMeA][Aze][NMePhe(4-Me)][Sar][hPhe(3-Cl-4-CF3)][NMeA][Ac5c][NMeI][NMeD]-NMe2; lactam N-11) was tested. Which IC50 did it give?
Answer: 0.68 nM

Question: `CC[C@H](C)[C@@H]1NC(=O)[C@H](CC(C)C)N(C)C(=O)C[C@@H](C)NC(=O)[C@H](C(C)C)N(C)C(=O)C2(CCCC2)NC(=O)[C@@H]2CCCN2C(=O)[C@H](CCc2ccc(C(F)(F)F)c(Cl)c2)NC(=O)CN(C)C(=O)[C@H](CC2CCCCC2)N(C)C(=O)CN(C)C(=O)CN(C2CC2)C1=O` [Compound 542] (cyclo([Ac5c][NMeV][d(β3hA)][NMeL]I[NcPrGly][Sar][NMeCha][Sar][hPhe(3-Cl-4-CF3)]P)) was tested. Which IC50 did it give?
Answer: 61 nM

Question: For `CC[C@H](C)[C@@H]1NC(=O)[C@H](CC(C)C)N(C)C(=O)C[C@@H](C(=O)N(C)C)N(C)C(=O)[C@H]([C@@H](C)CC)N(C)C(=O)[C@H](C)NC(=O)[C@H](Cc2cccnc2)N(C)C(=O)[C@H](CCc2ccc(C(F)(F)F)c(Cl)c2)NC(=O)CN(C)C(=O)[C@H](Cc2ccc(C)cc2)N(C)C(=O)[C@@H]2CCN2C(=O)[C@H](C)N(C)C1=O` [Compound 557] ([NMeL]I[NMeA][Aze][NMePhe(4-Me)][Sar][hPhe(3-Cl-4-CF3)][NMe3Pal]A[NMeI][NMeD]-NMe2; lactam N-11), which IC50 is on record?
Answer: 4.4 nM

Question: Which IC50 does the source give for `CCCCN1CC(=O)N(C)[C@@H](CC2CCCCC2)C(=O)N(C)CC(=O)N[C@@H](CCc2ccc(C(F)(F)F)c(Cl)c2)C(=O)N2CCC[C@H]2C(=O)NC2(CCCC2)C(=O)N(C)[C@@H](C(C)C)C(=O)N[C@H](C)CC(=O)N(C)[C@@H](CC(C)C)C(=O)N[C@@H]([C@@H](C)CC)C(=O)N(C)CC1=O` [Compound 1033] (cyclo([Ac5c][NMeV][d(β3hA)][NMeL]I[Sar][NBuGly][NMeCha][Sar][hPhe(3-Cl-4-CF3)]P)) here?
Answer: 360 nM

Question: With `CC[C@H](C)[C@@H]1NC(=O)[C@H](CC(C)C)N(C)C(=O)C[C@@H](C)NC(=O)[C@H](C2CCCC2)N(C)C(=O)C2(CCCC2)NC(=O)[C@@H]2CCCN2C(=O)[C@H](CCc2ccc(C(F)(F)F)c(Cl)c2)NC(=O)[C@H]2CCCN2C(=O)[C@H](Cc2ccc(C)cc2)N(C)C(=O)[C@@H]2CCN2C(=O)CN(C)C1=O` [Compound 1488] (cyclo([Ac5c][NMeGly(cPent)][d(β3hA)][NMeL]I[Sar][Aze][NMePhe(4-Me)][dP][hPhe(3-Cl-4-CF3)]P)) as the compound, how does the IC50 read?
Answer: 260 nM

Question: Which IC50 does the source give for `CCCC[C@@H]1NC(=O)[C@H](Cc2c(F)cccc2F)NC(=O)CN(C)C(=O)[C@H](Cc2ccc(OC)cc2)N(C)C(=O)[C@@H]2CCN2C(=O)[C@H](C)N(C)C(=O)[C@H]([C@@H](C)CC)NC(=O)[C@H](CC)N(C)C(=O)C[C@@H](C(=O)N2CCCCC2)N(C)C(=O)[C@H](CC(C)C)NC(=O)C(C)(C)N(C)C1=O` [Compound 1187] ([NMeAbu]I[NMeA][Aze][NMeY](Me)[Sar][Phe(2,6-F2)][Nle][NMeAib]L[NMeD]-Piperidide; lactam N-11) here?
Answer: 99 nM

Question: For `CC[C@H](C)[C@@H]1NC(=O)[C@H](CC(F)(F)F)N(C)C(=O)C[C@@H](C(=O)N2CCOCC2)N(C)C(=O)[C@H](C2CCCCC2)N(C)C(=O)C2(CCCC2)NC(=O)[C@@H]2CC(F)(F)CN2C(=O)[C@H](CCc2ccc(C(F)(F)F)c(Cl)c2)NC(=O)CN(C)C(=O)[C@H](Cc2ccc(C(F)(F)F)cc2)N(C)C(=O)CN(C)C(=O)CN(C)C1=O` [Compound 1182] ([NMeAbu(4,4,4-F3)]I[Sar][Sar][NMePhe(4-CF3)][Sar][hPhe(3-Cl-4-CF3)][Pro(4,4-F2)][Ac5c][NMeChg][NMeD]-Morpholide; lactam N-11), which IC50 is on record?
Answer: 0.56 nM

Question: Which IC50 does the source give for `CCCC[C@@H]1NC(=O)[C@H](CC(C)C)N(C)C(=O)C[C@@H](C)NC(=O)[C@H](CC(C)C)N(C)C(=O)C2(CCCC2)NC(=O)[C@@H]2CCCN2C(=O)[C@H](CCc2ccc(C(F)(F)F)c(F)c2)NC(=O)CN(C)C(=O)[C@H](CC2CCCCC2)N(C)C(=O)CN(C)C(=O)CN(C)C1=O` [Compound 1490] (cyclo([Ac5c][NMeL][d(β3hA)][NMeL][Nle][Sar][Sar][NMeCha][Sar][hPhe(3-F,4-CF3)]P)) here?
Answer: 320 nM

Question: Which IC50 does the source give for `CC[C@H](C)[C@@H]1NC(=O)[C@H](C)NC(=O)C[C@@H](C(=O)N2CCCC2)NC(=O)[C@H](CC(C)C)N(C)C(=O)[C@H](Cc2ccccc2)N(C)C(=O)[C@H](CC(C)C)NC(=O)[C@H](CCc2ccc(C(F)(F)F)cc2)NC(=O)CN(C)C(=O)[C@H](Cc2ccc(Cl)cc2)N(C)C(=O)CN(C)C(=O)CN(C)C1=O` [Compound 989] (AI[Sar][Sar][NMePhe(4-Cl)][Sar][hPhe(4-CF3)]L[NMeF][NMeL]D-Pyrrolidide; lactam N-11) here?
Answer: 34 nM
